Test results taken from patent US20230109801A1 (Blue Oak Pharmaceuticals, Inc., priority 2020, published 2023).
Where a name gives a salt, the structure may show the parent alone.

Tested on: mice
Experiment: SmartCube in vivo neuropharmacological behavioral assay
Conditions: for AD: antidepressant, percent probability / AG: analgesic, percent probability / AP: antipsychotic, percent probability / AX: anxiolytic, percent probability / CE: cognitive enhancer, percent probability / HA: hallucinogenic, percent probability / MS: mood stabilizer, percent probability / PS, percent probability / SD: sedative hypnotic, percent probability / SE: side effects, percent probability / UN: uncharacterized CNS activity, percent probability / XG: anxiogenic, percent probability: SmartCube, i.p. 15 min before test, at the MED; for minimal effective dose: Mus musculus, ip, read-out: MED (minimal effective dose)
Procedure: The compounds were evaluated for their CNS related properties (e.g., the treatment, prevention or diagnosis of CNS or CNS-related disorders and/or amelioration of symptoms) using neuropharmacological screening methods described in S. L. Roberts et al., Front. Neurosci. 2011, 5:103 (hereinafter referred to as “Roberts,” the contents of which are incorporated herein by reference in their entirety).
According to Roberts, intact systems are useful in detecting improvement in disease-relevant endpoints, because psychiatric diseases generally result from disorders of cell-cell communication or circuitry. The endpoints are typically behavioral in nature, often requiring human observation and interpretation. In order to test multiple compounds for behavioral effects relevant to neurological and psychiatric diseases and disorders, PsychoGenics, Inc. (Paramus, N.J. “PGI”) developed SmartCube®, an automated system in which behaviors of compound-treated mice are captured by digital video and analyzed with computer algorithms to facilitate testing of multiple compounds for behavioral effects relevant to psychiatric disease. (D. Brunner et al., Drug Discov. Today 2002, 7:S107-S112; Alexandrov et al., Eur. J. Pharmacol. 2015, 753:127-134; the contents of each of which are incorporated herein by reference in their entirety).
The SmartCube® system is described in Example 2.2 of U.S. Pat. No. 9,758,529 and Example 289 of WIPO Publication No. WO2018/023070, the contents of each of which are incorporated herein by reference in their entirety.
According to the present disclosure, compounds identified may be evaluated using the SmartCube® system. The results of such analysis correlate certain patterns or combinations of behaviors to CNS effects along a percent probability scale of 0-100 where zero (O) reflects the limit of quantitation (LOQ).
The compounds of the present disclosure were evaluated for their CNS related properties (e.g., the treatment, prevention or diagnosis of CNS or CNS-related disorders and/or amelioration of symptoms) using neuropharmacological screening methods described in S. L. Roberts et al., Front. Neurosci. 2011, 5:103 (hereinafter referred to as “Roberts,” the contents of which are incorporated herein by reference in their entirety).
The SmartCube® system described herein was utilized to compare the behavioral signature of a test compound to a database of behavioral signatures obtained using a large set of diverse reference compounds (including but not limited to antipsychotics, anxiolytics, antidepressants and bipolar disorder medicine), thereby predicting the neuropharmacological effects of a test compound by similarity to major classes of compounds. It produces an activity signature indicating the probability that the activity of the test compound at the administered dose matches a given class of neuropharmacological agents. The test compound is simultaneously compared against multiple classes of agents; thus, a separate probability is generated for each behavioral effect measured (such as but not limited to anxiolytic activity and analgesic activity).
The compounds of the present disclosure were dissolved in a mixture of Pharmasolve™ (N-methyl-2-pyrrolidone (NMP)) and were injected i.p. 15 min. before the behavioral test. For each compound, injections were administered at different dose levels (e.g., 0.3, 1, 3, 10 and 30 mg per kg (mpk)). A compound's minimal effective dose (MED; see Table 3) is a measure of the compound's potency. The MED was defined as the dose (in mpk) having 50% or more total activity in SmartCube®. For each behavioral effect measured, results at the MED are presented. CNS activities of the compounds were recorded (see Table 2). In Table 1, a key to the percent probabilities (probability×100) for each behavioral effect (“X”) are defined provided, where LOQ is the limit of quantification.

[1] = dose having 50% or more total activity in SmartCube, i.p.

Compound	AD: antidepressant, percent probability	AG: analgesic, percent probability	AP: antipsychotic, percent probability	AX: anxiolytic, percent probability	CE: cognitive enhancer, percent probability	HA: hallucinogenic, percent probability	MS: mood stabilizer, percent probability	PS, percent probability	SD: sedative hypnotic, percent probability	SE: side effects, percent probability	UN: uncharacterized CNS activity, percent probability	XG: anxiogenic, percent probability	MED (minimal effective dose) [1]	minimal effective dose [1] [mg/kg]
11-[(2E)-Pent-2-en-1-yl]-11-azatricyclo[6.2.1.0^2,7]undeca-2,4,6,9-tetraene hydrochloride [Compound 9]	+ (LOQ ≤ X < 5%)	+ (LOQ ≤ X < 5%)	+ (LOQ ≤ X < 5%)	+ (LOQ ≤ X < 5%)	+ (LOQ ≤ X < 5%)	+ (LOQ ≤ X < 5%)	+ (LOQ ≤ X < 5%)	+ (LOQ ≤ X < 5%)	+ (LOQ ≤ X < 5%)	+ (LOQ ≤ X < 5%)	+ (LOQ ≤ X < 5%)	+ (LOQ ≤ X < 5%)	+ (30 mg/kg < +)	
CC(C)N1C2C=CC1c1cc(F)c(F)cc12 [Compound 6, 4,5-Difluoro-11-(propan-2-yl)-11-azatricyclo[6.2.1.0^2,7]undeca-2,4,6,9-tetraene hydrochloride]	++ (5% ≤ X < 25%)	++++ (50% ≤ X <1 00%)	+ (LOQ ≤ X < 5%)	+ (LOQ ≤ X < 5%)	+ (LOQ ≤ X < 5%)	+ (LOQ ≤ X < 5%)	+ (LOQ ≤ X < 5%)	++ (5% ≤ X < 25%)	+ (LOQ ≤ X < 5%)	+ (LOQ ≤ X < 5%)	+ (LOQ ≤ X < 5%)	+ (LOQ ≤ X < 5%)		> 30
Fc1cc2c(cc1F)C1CCC2N1 [Compound 7, 4,5-Difluoro-11-azatricyclo[6.2.1.0^2,7]undeca-2,4,6-triene hydrochloride]	++ (5% ≤ X < 25%)	++ (5% ≤ X < 25%)	+ (LOQ ≤ X < 5%)	+++ (25% ≤ X < 50%)	+ (LOQ ≤ X < 5%)	+ (LOQ ≤ X < 5%)	+ (LOQ ≤ X < 5%)	+ (LOQ ≤ X < 5%)	+ (LOQ ≤ X < 5%)	++ (5% ≤ X < 25%)	+ (LOQ ≤ X < 5%)	+ (LOQ ≤ X < 5%)		> 30
CC(C)N1C2CCC1c1cc(F)c(F)cc12 [Compound 8, 4,5-difluoro-11-(propan-2-yl)-11-azatricyclo[6.2.1.0^2,7]undeca-2(7),3,5-triene hydrochloride]	+ (LOQ ≤ X < 5%)	++ (5% ≤ X < 25%)	+ (LOQ ≤ X < 5%)	++ (5% ≤ X < 25%)	+ (LOQ ≤ X < 5%)	+ (LOQ ≤ X < 5%)	+ (LOQ ≤ X < 5%)	+ (LOQ ≤ X < 5%)	++ (5% ≤ X < 25%)	++++ (50% ≤ X <1 00%)	+ (LOQ ≤ X < 5%)	+ (LOQ ≤ X < 5%)		10 to 30
CC/C=C/CN1C2CCC1c1ccccc12 [Compound 10, 11-[(2E)-Pent-2-en-1-yl]-11-azatricyclo[6.2.1.0^2,7]undeca-2,4,6-triene hydrochloride]	+ (LOQ ≤ X < 5%)	+ (LOQ ≤ X < 5%)	+ (LOQ ≤ X < 5%)	++ (5% ≤ X < 25%)	+ (LOQ ≤ X < 5%)	+ (LOQ ≤ X < 5%)	+ (LOQ ≤ X < 5%)	+ (LOQ ≤ X < 5%)	+ (LOQ ≤ X < 5%)	+ (LOQ ≤ X < 5%)	+ (LOQ ≤ X < 5%)	+ (LOQ ≤ X < 5%)		> 30
Clc1cccc2c1C1C=CC2N1 (stereo not drawn) [Compound 11, 3-Chloro-11-azatricyclo[6.2.1.0^2,7]undeca-2,4,6,9-tetraene hydrochloride]	+ (LOQ ≤ X < 5%)	+ (LOQ ≤ X < 5%)	+ (LOQ ≤ X < 5%)	++ (5% ≤ X < 25%)	++ (5% ≤ X < 25%)	+ (LOQ ≤ X < 5%)	+ (LOQ ≤ X < 5%)	+ (LOQ ≤ X < 5%)	+ (LOQ ≤ X < 5%)	+ (LOQ ≤ X < 5%)	++ (5% ≤ X < 25%)	+ (LOQ ≤ X < 5%)		> 30
CC(C)N1C2C=CC1c1c(Cl)cccc12 (stereo not drawn) [Compound 12, 3-Chloro-11-(propan-2-yl)-11-azatricyclo[6.2.1.0^2,7]undeca-2,4,6,9-tetraene hydrochloride]	+ (LOQ ≤ X < 5%)	+ (LOQ ≤ X < 5%)	+ (LOQ ≤ X < 5%)	+++ (25% ≤ X < 50%)	+ (LOQ ≤ X < 5%)	+ (LOQ ≤ X < 5%)	+ (LOQ ≤ X < 5%)	++ (5% ≤ X < 25%)	+ (LOQ ≤ X < 5%)	+ (LOQ ≤ X < 5%)	+ (LOQ ≤ X < 5%)	+ (LOQ ≤ X < 5%)		> 30
Clc1cccc2c1C1CCC2N1 (stereo not drawn) [Compound 13, 3-Chloro-11-azatricyclo[6.2.1.0^2,7]undeca-2,4,6-triene hydrochloride]	+ (LOQ ≤ X < 5%)	+ (LOQ ≤ X < 5%)	+ (LOQ ≤ X < 5%)	++ (5% ≤ X < 25%)	++ (5% ≤ X < 25%)	+ (LOQ ≤ X < 5%)	+ (LOQ ≤ X < 5%)	+ (LOQ ≤ X < 5%)	+ (LOQ ≤ X < 5%)	+ (LOQ ≤ X < 5%)	+++ (25% ≤ X < 50%)	+ (LOQ ≤ X < 5%)		> 30
CC(C)N1C2CCC1c1c(Cl)cccc12 (stereo not drawn) [Compound 14, 3-Chloro-11-(propan-2-yl)-11-azatricyclo[6.2.1.0^2,7]undeca-2,4,6-triene hydrochloride]	+++ (25% ≤ X < 50%)	++ (5% ≤ X < 25%)	+ (LOQ ≤ X < 5%)	++ (5% ≤ X < 25%)	+ (LOQ ≤ X < 5%)	+ (LOQ ≤ X < 5%)	+ (LOQ ≤ X < 5%)	++ (5% ≤ X < 25%)	+ (LOQ ≤ X < 5%)	+ (LOQ ≤ X < 5%)	+ (LOQ ≤ X < 5%)	+ (LOQ ≤ X < 5%)		> 30
